Reference: US4902811A, “Benzodioxane prostacyclin analogs” (Shionogi & Co., Ltd., priority 1987, dated 1990)

The compounds below were run on hydrochloric acid-ethanol-induced gastric ulcer (assay: Effect against hydrochloric acid ethanol-induced gastric ulcer (percent suppression of lesion index, oral)). Conditions: JCL-SD rats; oral; 30 μg/kg, 30 min before HCl-ethanol.
Format: in vivo, male JCL-SD rats or CRJ-SD rats
Procedure: To male JCL-SD rats or CRJ-SD rats (weight: 220 g to 260 g) which have been fasted for 24 hours is administered orally 1 ml of 150 mM hydrochloric acid-60% ethanol. After an hour, the stomachs are excised. The ulcer size is determined by measuring the length of each lesion using a stereoscopic microscope and the sum of individual lesion length is expressed as lesion index. The vehicle (1% to 10% ethanol) and the test compounds are administered orally 30 minutes before the hydrochloric acid-ethanol administration. The percent suppression is calculated from the lesion indexes of treated versus non-treated animals.
In the case of `CCCCC(C)CC(O)CCC1C(O)CC2Oc3c(OCC(=O)OC)cccc3OC21` (centres unmarked) [Ife-a], the “Percent Suppression (P.S.)” value is reported as 91%. For `CCCCC(C)CC(O)CCC1C(O)CC2Oc3c(OCC(=O)OC)cccc3OC21` (centres unmarked) [Ifd-a], the “Percent Suppression (P.S.)” value was 66%. In the case of `CC(C)=CCCC(C)CC(O)C=CC1C(O)CC2Oc3c(OCC(=O)O)cccc3OC21` (centres unmarked) [Ibl-b], the “Percent Suppression (P.S.)” value is reported as 83%. `CCCCC(C)CC(O)C=CC1C(O)CC2Oc3c(OCC(=O)O)cccc3OC21` (centres unmarked) [Ibd-b] was tested, and the “Percent Suppression (P.S.)” value was 74%. For `CCCCC(C)CC(O)C=CC1C(O)CC2Oc3c(OCC(=O)OC)cccc3OC21` (centres unmarked) [Ibe-a], the “Percent Suppression (P.S.)” value was 96%. With `COC(=O)COc1cccc2c1OC1CC(O)C(C=CC(O)CC(C)CCC=C(C)C)C1O2` (centres unmarked) [Ibl-a] the “Percent Suppression (P.S.)” value was 64%. `CCCCC(C)CC(O)C=CC1C(O)CC2Oc3c(OCC(=O)OC)cccc3OC21` (centres unmarked) [Ibd-a] was tested, and the “Percent Suppression (P.S.)” value was 91%. With `CCCCC(C)CC(O)C=CC1C(O)CC2Oc3c(OCC(=O)OC)cccc3OC21` (centres unmarked) [Ide-a] the “Percent Suppression (P.S.)” value was 37%. For `CCCCC(C)CC(O)C=CC1C(O)CC2Oc3c(OCC(=O)OC)cccc3OC21` (centres unmarked) [Idd-a], the “Percent Suppression (P.S.)” value was 32%.

Same assay, conditions: Rattus norvegicus, po, 1 h, CRJ-SD rats; oral; 30 μg/kg, 30 min before HCl-ethanol; read-out: Percent Suppression (P.S.)
Compound `CCCCC(C)CC(O)C=CC1C(O)CC2Oc3c(OCC(=O)OC)cccc3OC21` (centres unmarked) [Ibe-a] has an inhibition in vivo at 0.03 mg/kg of 99%.

Same assay, conditions: Rattus norvegicus, po, 1 h, JCL-SD rats; oral; 30 μg/kg, 30 min before HCl-ethanol; read-out: Percent Suppression (P.S.)
`COC(=O)COc1cccc2c1OC1CC(O)C(C=CC(O)CC(C)COc3ccccc3)C1O2` (centres unmarked) [Ibo-a] showed an inhibition in vivo at 0.03 mg/kg of 63%. Compound `O=C(O)COc1cccc2c1O[C@@H]1C[C@H](O)[C@@H](CC[C@H](O)C3CCCCC3)[C@@H]1O2` (relative stereo) [Ifb-b] has an inhibition in vivo at 0.03 mg/kg of 75%. In the case of `CCC#CCC[C@@H](O)/C=C/[C@H]1[C@@H]2Oc3cccc(OCC(=O)OC)c3O[C@@H]2C[C@@H]1O` (relative stereo) [Ibc-a], the inhibition in vivo at 0.03 mg/kg is reported as 29%. `O=C(O)COc1cccc2c1O[C@@H]1C[C@H](O)[C@@H](/C=C/[C@H](O)C3CCCCC3)[C@@H]1O2` (relative stereo) [Ibb-b] gave an inhibition in vivo at 0.03 mg/kg of 25%. Work on `CCCCC(C)CC(O)C=CC1C(O)CC2Oc3c(OCC(=O)O)cccc3OC21` (centres unmarked) [Ibe-b] yielded an inhibition in vivo at 0.03 mg/kg of 80%. `CCC#CCC[C@@H](O)/C=C/[C@H]1[C@@H]2Oc3cccc(OCC(=O)O)c3O[C@@H]2C[C@@H]1O` (relative stereo) [Ibc-b] gave an inhibition in vivo at 0.03 mg/kg of 14%. `CCCCC[C@@H](O)/C=C/[C@H]1[C@@H]2Oc3cccc(OCC(=O)OC)c3O[C@@H]2C[C@@H]1O` (relative stereo) [Iba-a] was tested, and the inhibition in vivo at 0.03 mg/kg was 36%. `COC(=O)COc1cccc2c1O[C@@H]1C[C@H](O)[C@@H](CC[C@H](O)C3CCCCC3)[C@@H]1O2` (relative stereo) [Ifb-a] gave an inhibition in vivo at 0.03 mg/kg of 78%. For `COC(=O)COc1cccc2c1O[C@@H]1C[C@H](O)[C@@H](CC[C@H](O)CC3CCCCC3)[C@@H]1O2` (relative stereo) [Ifj-a], the inhibition in vivo at 0.03 mg/kg was 25%. `COC(=O)COc1cccc2c1OC1CC(O)C(C=CC(O)CC(C)Oc3ccccc3)C1O2` (centres unmarked) [Ibm-a] showed an inhibition in vivo at 0.03 mg/kg of 58%. `COC(=O)COc1cccc2c1O[C@@H]1C[C@H](O)[C@@H](/C=C/[C@H](O)C3CCCCC3)[C@@H]1O2` (relative stereo) [Ibb-a] showed an inhibition in vivo at 0.03 mg/kg of 63%. For `COC(=O)COc1cccc2c1O[C@@H]1C[C@H](O)[C@@H](/C=C/[C@H](O)C3CCCC3)[C@@H]1O2` (relative stereo) [Ibi-a], the inhibition in vivo at 0.03 mg/kg was 41%. Compound `CCCCC(C)(C)[C@@H](O)/C=C/[C@H]1[C@@H]2Oc3cccc(OCC(=O)OC)c3O[C@@H]2C[C@@H]1O` (relative stereo) [Ibg-a] has an inhibition in vivo at 0.03 mg/kg of 15%. `COC(=O)COc1cccc2c1O[C@@H]1C[C@H](O)[C@@H](CC[C@H](O)C3CCCC3)[C@@H]1O2` (relative stereo) [Ifi-a] was tested, and the inhibition in vivo at 0.03 mg/kg was 52%. Work on `COC(=O)COc1cccc2c1OC1CC(O)C(C=CC(O)CC(C)CCC=C(C)C)C1O2` (centres unmarked) [Ibk-a] yielded an inhibition in vivo at 0.03 mg/kg of 81%. `CC(C)=CCCC(C)CC(O)C=CC1C(O)CC2Oc3c(OCC(=O)O)cccc3OC21` (centres unmarked) [Ibk-b] was tested, and the inhibition in vivo at 0.03 mg/kg was 70%. Compound `CCCCC[C@@H](O)CC[C@H]1[C@@H]2Oc3cccc(OCC(=O)OC)c3O[C@@H]2C[C@@H]1O` (relative stereo) [Ifa-a, methyl[(1R*,2S*,3aR*,9aS*)-2-hydroxy-1-[(R*)-3-hydroxyoctyl]-2,3,3a,9a-tertahydro-1H-cyclopenta[b][1,4]benzodioxin-5-oxyacetate] has an inhibition in vivo at 0.03 mg/kg of 27%. In the case of `CCCCC[C@H](O)/C=C/[C@H]1[C@@H]2Oc3cccc(OCC(=O)OC)c3O[C@@H]2C[C@@H]1O` (relative stereo) [Ida-a, methyl [(1R*,2S*,3aR*,9aS*)-2-hydroxy-1-[(3S*,1E)-3-hydroxy-1-octenyl]-2,3,3a,9a-tetrahydro-1H-cyclopenta[b][1,4]benzodioxin-5-yl]oxyacetate], the inhibition in vivo at 0.03 mg/kg is reported as 37%. Compound `O=C(O)COc1cccc2c1O[C@@H]1C[C@H](O)[C@@H](/C=C/[C@@H](O)C3CCCCC3)[C@@H]1O2` (relative stereo) [Idb-b] has an inhibition in vivo at 0.03 mg/kg of 25%.

Same assay, conditions: Rattus norvegicus, po, 1 h, JCL-SD rats; oral; 100 μg/kg, 30 min before HCl-ethanol; read-out: Percent Suppression (P.S.)
`CCCCC[C@H](O)/C=C/[C@H]1[C@@H]2Oc3cccc(OCC(=O)O)c3O[C@@H]2C[C@@H]1O` (relative stereo) [Ida-b, [(1R*,2S*,3aR*,9aS*)-2-hydroxy-1-[(3S*,1E)-3-hydroxy-1-octenyl]-2,3,3a,9a-tetrahydro-1H-cyclopenta[b][1,4]benzodioxin-5-yl]oxyacetic acid] gave an inhibition in vivo at 0.1 mg/kg of 19%. With `CCCCC[C@@H](O)/C=C/[C@H]1[C@@H]2Oc3cccc(OCC(=O)O)c3O[C@@H]2C[C@@H]1O` (relative stereo) [Iba-b, [(1R*,2S*,3aR*,9aS*)-2-hydroxy-1-[(3R*,1E)-3-hydroxy-1-octenyl]-2,3,3a,9a-tetrahydro-1H-cyclopenta[b][1,4]benzodioxin-5-yl]oxyacetic acid] the inhibition in vivo at 0.1 mg/kg was 30%.

Same assay, conditions: reference compound; 300 μg/Kg; strain not stated
For `CCCCC[C@H](O)/C=C/[C@@H]1[C@H]2CC(SCCCC(=O)OC)=N[C@H]2C[C@H]1O` [Hoe892, reference compound], the “Percent Suppression (P.S.)” value was 28%.
